Experimental data: ChEMBL document CHEMBL3886421, “6-thio-substituted imidazo[1,2-a]pyrazines as Mps-1 inhibitors” (2015)

Target: T1, Dual specificity protein kinase TTK (Homo sapiens, UniProt P33981)
T1 sequence (P33981 whole entry): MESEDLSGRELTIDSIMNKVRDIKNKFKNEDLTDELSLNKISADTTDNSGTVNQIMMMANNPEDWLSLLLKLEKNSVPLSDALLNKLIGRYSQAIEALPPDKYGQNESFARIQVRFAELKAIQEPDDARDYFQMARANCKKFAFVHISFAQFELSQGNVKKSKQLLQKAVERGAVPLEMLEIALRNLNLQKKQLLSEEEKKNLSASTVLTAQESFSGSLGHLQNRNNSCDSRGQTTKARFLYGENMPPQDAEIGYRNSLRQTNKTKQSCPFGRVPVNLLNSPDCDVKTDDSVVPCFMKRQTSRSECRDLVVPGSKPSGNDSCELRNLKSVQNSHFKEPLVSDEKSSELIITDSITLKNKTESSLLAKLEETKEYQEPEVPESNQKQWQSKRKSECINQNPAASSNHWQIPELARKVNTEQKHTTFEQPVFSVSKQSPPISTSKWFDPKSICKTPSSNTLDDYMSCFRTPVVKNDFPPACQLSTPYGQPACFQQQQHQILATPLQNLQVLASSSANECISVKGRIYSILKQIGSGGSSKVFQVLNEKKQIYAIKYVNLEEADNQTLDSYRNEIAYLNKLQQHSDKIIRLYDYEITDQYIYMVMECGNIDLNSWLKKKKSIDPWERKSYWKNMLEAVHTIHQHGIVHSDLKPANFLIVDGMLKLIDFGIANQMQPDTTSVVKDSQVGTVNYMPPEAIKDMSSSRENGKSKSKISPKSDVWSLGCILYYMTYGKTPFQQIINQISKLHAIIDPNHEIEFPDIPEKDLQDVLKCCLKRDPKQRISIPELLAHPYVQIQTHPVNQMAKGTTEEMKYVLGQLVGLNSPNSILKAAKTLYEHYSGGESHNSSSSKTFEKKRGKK
Test: Kinase Assay: For the assay 50 nL of a 100-fold concentrated solution of the test compound in DMSO was pipetted into a black low volume 384 well microtiter plate (Greiner Bio-One, Frickenhausen, Germany), 2 ul of a solution of Mps-1 in assay buffer [0.1 mM sodium-ortho-vanadate, 10 mM MgCl2, 2 mM DTT, 25 mM Hepes pH 7.7, 0.05% BSA, 0.001% Pluronic F-127] were added and the mixture was incubated for 15 min at 22° C. to allow pre-binding of the test compounds to Mps-1 before the start of the kinase reaction. Then the kinase reaction was started by the addition of 3 ul of a solution of 16.7 adenosine-tri-phosphate (ATP, 16.7 uM=>final conc. in the 5 ul assay volume is 10 uM) and peptide substrate (1.67 uM=>final conc. in the 5 ul assay volume is 1 uM) in assay buffer and the resulting mixture was incubated for a reaction time of 60 min at 22° C. The concentration of Mps-1 in the assay was adjusted to the activity of the enzyme lot.

CCCSc1cn2c(-c3ccc(C(=O)NC4CC4)c(C)c3)cnc2c(NCC(C)(C)O)n1 was tested. Which IC50 did it give?
Its IC50 is 52.1 nM.
